Source: paper PMC6789573, “Phosphonic Acid Analogues of Phenylglycine as Inhibitors of Aminopeptidases: Comparison of Porcine Aminopeptidase N, Bovine Leucine Aminopeptidase, Tomato Acidic Leucine Aminopeptidase and Aminopeptidase from Barley Seeds” (Pharmaceuticals, 2019)

Each compound was assayed on aminopeptidase from barley seeds (assay: Inhibition of aminopeptidase from barley seeds (L-Leu-pNa hydrolysis, absorbance at 405 nm)). Details: barley enzyme.
Type: biochemical, barley (Hordeum vulgare L.)
Experimental: Aminopeptidase from barley seeds (Hordeum vulgare L.) was isolated and purified based on the procedure described previously. The following steps were used: (i) ammonium sulfate precipitation, (ii) gel chromatography (Sephadex G-25, Sephacryl HR 300), followed by (iii) ion chromatography (DEAE—Sepharose). The molecular mass of the extracted enzyme was ~58 kDa. Because of the low stability of the concentrated enzyme solution, it was prepared directly before each kinetic study.
(§1) The activity of pAPN (KM = 0.52 mM) was determined as described in the literature. The activity of aminopeptidase from barley seeds was determined at 37 °C in 50 mM Tris-HCl, pH 8.0, containing 50 mM NaCl and 10 mM β-mercaptoethanol using substrate L-leucine-p-nitroanilidine (L-Leu-pNa) dissolved in DMSO. The kinetics parameters of the purified enzyme were measured for L-Leu-pNa at ten final concentrations (ranging from 0.1 to 1.0 mM) and being repeated two times. The KM value of barley seeds aminopeptidase was determined by using the Lineweaver–Burk weighted regression method (see Table S7 and Plot 1 in the Supplementary Information).
The assay mixture of the aminopeptidase from barley seeds, totaling 1.095 mL, contained 50 mM Tris-HCl buffer (pH 8.0) with 50 mM NaCl and 10 mM β-mercaptoethanol, 0.025 mL of the substrate L-Leu-pNa dissolved in DMSO (used in 0.4–0.1 mM range of the final concentration), 0.05 mL of varying concentrations of the potential inhibitor (dependent on the potency of the compound), and 0.02 mL enzyme (0.030 mg of protein).
(§2) The progress of the enzymatic reaction for both enzymes was measured at 37 °C for 10 min and was monitored spectrophotometrically (UV-VIS Spectrophotometer, JASCO V-730) by following the change in absorbance at 405 nm (formation of p-nitroaniline). The extinction coefficient for pNa was 9620 M^−1cm^−1.
(§3) Inhibition constants were determined considering four substrate concentrations and five concentrations of each inhibitor, with each measurement being repeated at least twice.
(§4) The rate of enzymatic reaction was studied following the reaction progress (changes in absorbance of L-Leu-pNa over time). Kinetics constants, namely Ki and IC50, and the type of the inhibition were determined using Lineweaver–Burk, Dixon, and Hanes–Wolf procedures. For each parameter, relative errors were calculated.
The progress of the enzymatic reactions was monitored spectrophotometrically (UV-VIS Spectrophotometer JASCO V-730) by following the change in absorbance at 405 nm (formation of p-nitroanilide). The extinction coefficient for L- […]
The kinetic parameters (KM and Vmax) for aminopeptidase from barley seeds were determined by using the Lineweaver–Burk (L-B) weighted regression method. The measured KM value was 0.21 mM ± 0.14 and was used to determine the inhibitory constants of the all evaluated inhibitors.
Table S7. The kinetic parameters characterizing activity of the isolated aminopeptidase from barley seeds. […]
Lineweaver-Burk regression
Plot S1. Graphical determination of the KM value for aminopeptidase from barley seeds by using Lineweaver-Burk: unweighted (blue line) and weighted (red line) regression method.

inhibitory action	SMILES
practically no inhibitory action	NC(c1ccc(C(F)(F)F)cc1F)P(=O)(O)O (centres unmarked) [Compound 12]
practically no inhibitory action	NC(c1c(F)c(F)c(F)c(F)c1F)P(=O)(O)O (centres unmarked) [Compound 13]

Same assay, conditions: racemic compounds; apparent Ki ± SD; 50 mM Tris-HCl pH 8.0, 37 °C, substrate L-Leu-pNa; in = inactive at a concentration of 1 mM

Barley Seed AP Ki + SD	SMILES
in ^2	NC(c1ccc(C(F)(F)F)cc1F)P(=O)(O)O (centres unmarked) [Compound 12]
in ^2	NC(c1c(F)c(F)c(F)c(F)c1F)P(=O)(O)O (centres unmarked) [Compound 13]
in ^2	NC(c1c(F)cc(F)cc1F)P(=O)(O)O (centres unmarked) [Compound 6]

SMILES	Barley Seed AP Ki + SD
NC(c1ccc(O)cc1F)P(=O)(O)O (centres unmarked) [Compound 14]	in ^2

Same assay, conditions: racemic compounds; apparent Ki ± SD; 50 mM Tris-HCl pH 8.0, 37 °C, substrate L-Leu-pNa; in = inactive at a concentration of 1 mM; read-out: Barley Seed AP Ki + SD

SMILES	Ki [µM]
NC(c1ccc(Cl)c(F)c1)P(=O)(O)O (centres unmarked) [Compound 8]	103 ± 10
NC(c1ccc(F)cc1)P(=O)(O)O (centres unmarked) [Compound 3]	1100 ± 57
NC(c1ccc(F)cc1F)P(=O)(O)O (centres unmarked) [Compound 4]	1420 ± 83
NC(c1ccc(F)c(F)c1)P(=O)(O)O (centres unmarked) [Compound 5]	549 ± 54
NC(c1cc(F)cc(C(F)(F)F)c1)P(=O)(O)O (centres unmarked) [Compound 11]	1030 ± 73
NC(c1cccc(F)c1)P(=O)(O)O (centres unmarked) [Compound 2]	311 ± 27
NC(c1ccc(C(F)(F)F)cc1)P(=O)(O)O (centres unmarked) [Compound 10]	686 ± 70
NC(c1ccc(Cl)cc1F)P(=O)(O)O (centres unmarked) [Compound 9]	818 ± 43
NC(c1ccc(F)c(Cl)c1)P(=O)(O)O (centres unmarked) [Compound 7]	62.1 ± 2.3

Same assay, conditions: substrate of barley seed aminopeptidase; Lineweaver-Burk weighted regression; 37 °C, pH 8.0

SMILES	Km [µM]
CC(C)C[C@H](N)C(=O)Nc1ccc([N+](=O)[O-])cc1 [L-Leu-pNa, L-leucine-p-nitroanilidine, reference compound]	210

The compounds below were run against T1, porcine aminopeptidase N (pAPN) (Sus scrofa, UniProt P15145) (assay: Inhibition of porcine kidney aminopeptidase N (L-Leu-pNa hydrolysis, absorbance at 405 nm)). Details: pAPN.
T1 construct: Microsomal leucine aminopeptidase (APN, EC 3.4.11.2) from porcine kidney was purchased from Sigma Aldrich; purchased Sigma Aldrich; host or cells: porcine kidney (tissue-derived)
T1 sequence (P15145 1-963): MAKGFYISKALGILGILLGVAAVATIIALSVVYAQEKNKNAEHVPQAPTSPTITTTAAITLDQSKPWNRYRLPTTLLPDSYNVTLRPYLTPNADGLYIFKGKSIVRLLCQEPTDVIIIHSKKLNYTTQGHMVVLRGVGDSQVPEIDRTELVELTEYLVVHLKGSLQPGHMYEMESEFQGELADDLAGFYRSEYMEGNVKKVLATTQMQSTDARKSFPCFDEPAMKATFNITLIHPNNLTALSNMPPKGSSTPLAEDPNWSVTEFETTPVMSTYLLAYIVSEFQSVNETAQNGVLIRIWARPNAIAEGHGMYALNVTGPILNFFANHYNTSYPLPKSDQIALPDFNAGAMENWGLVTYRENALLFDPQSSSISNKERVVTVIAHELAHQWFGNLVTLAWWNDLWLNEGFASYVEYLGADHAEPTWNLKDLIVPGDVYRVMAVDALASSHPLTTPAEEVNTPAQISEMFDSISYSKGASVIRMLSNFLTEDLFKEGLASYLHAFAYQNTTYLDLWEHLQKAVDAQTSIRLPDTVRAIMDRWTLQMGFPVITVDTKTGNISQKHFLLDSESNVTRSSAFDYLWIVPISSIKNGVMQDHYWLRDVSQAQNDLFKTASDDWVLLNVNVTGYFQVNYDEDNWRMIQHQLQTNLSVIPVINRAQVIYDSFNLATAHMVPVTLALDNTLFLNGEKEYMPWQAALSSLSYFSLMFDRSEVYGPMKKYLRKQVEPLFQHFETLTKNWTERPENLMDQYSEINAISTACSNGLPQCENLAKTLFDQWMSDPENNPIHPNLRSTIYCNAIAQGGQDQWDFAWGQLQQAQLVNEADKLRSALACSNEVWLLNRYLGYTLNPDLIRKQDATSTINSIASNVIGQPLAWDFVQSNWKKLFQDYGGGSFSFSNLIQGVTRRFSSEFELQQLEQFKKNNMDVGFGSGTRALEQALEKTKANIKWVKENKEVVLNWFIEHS
Type: biochemical
Experimental: Microsomal leucine aminopeptidase (APN, EC 3.4.11.2) from porcine kidney was purchased from Sigma Aldrich. It was applied directly in kinetic measurements after dissolving in 50 mM potassium phosphate (pH 7.2). Such a solution should be stored in 4 °C for no longer than 2 days.
as §1
The assay mixture of the pAPN, totaling 1.01 mL, contained 50 mM potassium phosphate buffer (pH 7.2), 0.025 mL of the substrate L-Leu-pNa dissolved in DMSO (used in 0.4–0.1 mM range of the final concentration), 0.05 mL of the potential inhibitor in reaction buffer (in a concentration dependent on the potency of the compound), and 0.01 mL of the enzyme solution (4µg/mL final concentration).
as §2, §3, §4

inhibitory action	SMILES
practically no inhibitory action	NC(c1ccc(C(F)(F)F)cc1F)P(=O)(O)O (centres unmarked) [Compound 12]
practically no inhibitory action	NC(c1c(F)c(F)c(F)c(F)c1F)P(=O)(O)O (centres unmarked) [Compound 13]

Same assay, conditions: racemic compounds; apparent Ki ± SD; 50 mM potassium phosphate pH 7.2, 37 °C, substrate L-Leu-pNa; in = inactive at a concentration of 1 mM

pAPN Ki + SD	SMILES	Ki [µM]
in ^2	NC(c1ccc(C(F)(F)F)cc1F)P(=O)(O)O (centres unmarked) [Compound 12]	–
in ^2	NC(c1c(F)c(F)c(F)c(F)c1F)P(=O)(O)O (centres unmarked) [Compound 13]	–
–	NC(c1cc(F)cc(C(F)(F)F)c1)P(=O)(O)O (centres unmarked) [Compound 11]	164 ± 7.7
–	NC(c1ccccc1F)P(=O)(O)O (centres unmarked) [Compound 1]	232 ± 22
in ^2	NC(c1c(F)cc(F)cc1F)P(=O)(O)O (centres unmarked) [Compound 6]	–
–	NC(c1cccc(F)c1)P(=O)(O)O (centres unmarked) [Compound 2]	122 ± 10
–	NC(c1ccc(C(F)(F)F)cc1)P(=O)(O)O (centres unmarked) [Compound 10]	56.3 ± 2.2

Same assay, conditions: substrate of pAPN

SMILES	Km [µM]
CC(C)C[C@H](N)C(=O)Nc1ccc([N+](=O)[O-])cc1 [L-Leu-pNa, L-leucine-p-nitroanilidine, reference compound]	520
